Measurements reported in PubChem BioAssay AID248 (DTP/NCI, 2004).
“And” between values parts separate entries of the source, which are not always exact repeats. Equal values may be shown once. Inconclusive results and toxic doses are left out. No stated cut-off is given here; in the data, active means T/C of 150% or more; inactive means T/C below 125%.

System: L1210 leukemia ip in BDF1 mice, survival T/C
Test: NCI In Vivo Anticancer Drug Screen. Data for tumor model L1210 Leukemia (intraperitoneal) in B6D2F1 (BDF1) mice
Settings: endpoint: mean survival time, higher = longer survival
Summary of the method: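 Mice bearing the transplanted tumor received compound or vehicle. Survival of the treated group was divided by that of the vehicle-treated control group to give the ratio.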

[1] = dose: 100.0 mg/kg/injection, schedule: Q04DX002 (ip), vehicle: saline
[2] = dose: 200.0 mg/kg/injection, schedule: Q04DX002 (ip), vehicle: saline
[3] = dose: 400.0 mg/kg/injection, schedule: Q04DX002 (ip), vehicle: saline
[4] = dose: 100.0 mg/kg/injection, schedule: Q01DX001 (ip), vehicle: saline
[5] = dose: 200.0 mg/kg/injection, schedule: Q01DX001 (ip), vehicle: saline
[6] = dose: 400.0 mg/kg/injection, schedule: Q01DX001 (ip), vehicle: saline

Measured: T/C

CC(=O)Nc1c(Br)cc2c(c1Br)Cc1cc(Br)ccc1-2
inactive: dose: 100.0 mg/kg/injection, schedule: Q01DX001 (ip), vehicle: carboxymethylcellulose (CMC) 111 % of control | dose: 200.0 mg/kg/injection, schedule: Q01DX001 (ip), vehicle: carboxymethylcellulose (CMC) 97 % of control | dose: 400.0 mg/kg/injection, schedule: Q01DX001 (ip), vehicle: carboxymethylcellulose (CMC) 108 % of control

O=C1c2ccccc2C(=O)N1CCOc1ccc([N+](=O)[O-])cc1
inactive: dose: 100.0 mg/kg/injection, schedule: Q01DX001 (ip), vehicle: gum acacia 92 % of control | dose: 200.0 mg/kg/injection, schedule: Q01DX001 (ip), vehicle: gum acacia 99 % of control | dose: 400.0 mg/kg/injection, schedule: Q01DX001 (ip), vehicle: gum acacia 92 % of control

CCCCCCCCOC(=O)C1=NC=NC1=[N+]=[N-]
inactive: dose: 5.0 mg/kg/injection, schedule: Q01DX001 (ip), vehicle: other 107 % of control | dose: 10.0 mg/kg/injection, schedule: Q01DX001 (ip), vehicle: other 110 % of control | dose: 20.0 mg/kg/injection, schedule: Q01DX001 (ip), vehicle: other 104 % of control | dose: 40.0 mg/kg/injection, schedule: Q01DX001 (ip), vehicle: other 101 % of control

CCCNC(=O)Oc1c(C(C)C)ccc(C)c1Cl
inactive: dose: 100.0 mg/kg/injection, schedule: Q01DX009 (ip), vehicle: saline with Tween-80 108 % of control | dose: 200.0 mg/kg/injection, schedule: Q01DX009 (ip), vehicle: saline with Tween-80 88 % of control | dose: 400.0 mg/kg/injection, schedule: Q01DX009 (ip), vehicle: saline with Tween-80 95 % of control

O=C(Nc1cccc(C(F)(F)F)c1)C(Br)C(Br)c1ccccc1 (stereo unspecified)
inactive: dose: 100.0 mg/kg/injection, schedule: Q01DX009 (ip), vehicle: Klucel (hydroxypropylcellulose) (HPC) 103 % of control | dose: 200.0 mg/kg/injection, schedule: Q01DX009 (ip), vehicle: Klucel (hydroxypropylcellulose) (HPC) 100 % of control

O=C1OC(c2ccc(Cl)cc2)=N/C1=C\c1ccc(Cl)c(Cl)c1
inactive: [1] 106 % of control | [2] 92 % of control | [3] 100 % of control

COc1ccc(N=Cc2ccccc2O)cc1.[Co]
inactive: dose: 100.0 mg/kg/injection, schedule: Q01DX001 (ip), vehicle: other 96 % of control | dose: 200.0 mg/kg/injection, schedule: Q01DX001 (ip), vehicle: other 102 % of control | dose: 400.0 mg/kg/injection, schedule: Q01DX001 (ip), vehicle: other 105 % of control

CCCCCCCCCCCC[N+]1(CCCCCCCCCCCC)CCCC(C)C1 (stereo unspecified)
inactive: dose: 3.0 mg/kg/injection, schedule: Q04DX002 (ip), vehicle: Klucel (hydroxypropylcellulose) (HPC) 109 % of control | dose: 6.0 mg/kg/injection, schedule: Q04DX002 (ip), vehicle: Klucel (hydroxypropylcellulose) (HPC) 87 % of control

CC(C)(C)NC(=O)C1C(c2ccccc2)C1c1ccccc1 (stereo unspecified)
inactive: dose: 100.0 mg/kg/injection, schedule: Q04DX002 (ip), vehicle: Klucel (hydroxypropylcellulose) (HPC) 90 % of control | dose: 200.0 mg/kg/injection, schedule: Q04DX002 (ip), vehicle: Klucel (hydroxypropylcellulose) (HPC) 113 % of control | dose: 400.0 mg/kg/injection, schedule: Q04DX002 (ip), vehicle: Klucel (hydroxypropylcellulose) (HPC) 100 % of control

CCCCOC(=O)c1ccccc1C(=O)OC1CCCCC1
inactive: dose: 75.0 mg/kg/injection, schedule: Q01DX001 (ip), vehicle: Klucel (hydroxypropylcellulose) (HPC) 115 % of control | dose: 150.0 mg/kg/injection, schedule: Q01DX001 (ip), vehicle: Klucel (hydroxypropylcellulose) (HPC) 103 % of control | dose: 300.0 mg/kg/injection, schedule: Q01DX001 (ip), vehicle: Klucel (hydroxypropylcellulose) (HPC) 100 % of control

Cn1[nH]c(=O)[nH]c1=O
inactive: [1] 103 % of control | dose: 100.0 mg/kg/injection, schedule: Q04DX003 (ip), vehicle: saline with Tween-80 98 % of control and 87 % of control | [2] 100 % of control | dose: 200.0 mg/kg/injection, schedule: Q04DX003 (ip), vehicle: saline with Tween-80 93 % of control | [3] 103 % of control | dose: 400.0 mg/kg/injection, schedule: Q04DX003 (ip), vehicle: saline with Tween-80 90 % of control

O=C(O)c1cc(Cl)cc2c1-c1ccc(Cl)cc1C2Br (stereo unspecified)
inactive: dose: 18.7 mg/kg/injection, schedule: Q01DX009 (ip), vehicle: carboxymethylcellulose (CMC) 96 % of control | dose: 75.0 mg/kg/injection, schedule: Q01DX001 (ip), vehicle: carboxymethylcellulose (CMC) 98 % of control | dose: 150.0 mg/kg/injection, schedule: Q01DX001 (ip), vehicle: carboxymethylcellulose (CMC) 91 % of control

O=S(=O)(O)c1ccc(N=Nc2ccc(O)c(Cl)c2)cc1
inactive: dose: 55.0 mg/kg/injection, schedule: Q01DX Z (ip), vehicle: methylcellulose (MC) 94 % of control | dose: 83.0 mg/kg/injection, schedule: Q01DX Z (ip), vehicle: methylcellulose (MC) 96 % of control | dose: 125.0 mg/kg/injection, schedule: Q01DX Z (ip), vehicle: methylcellulose (MC) 106 % of control

CN(Cc1cnc2nc(N)c(Br)c(N)c2n1)c1ccc(C(=O)NC(CCC(=O)O)C(=O)O)cc1 (stereo unspecified)
inactive: dose: 100.0 mg/kg/injection, schedule: Q04DX002 (ip), vehicle: sodium bicarbonate 96 % of control | dose: 200.0 mg/kg/injection, schedule: Q04DX002 (ip), vehicle: sodium bicarbonate 96 % of control

CC(C)CCC[C@@H](C)[C@H]1CC[C@H]2[C@@H]3CCC(=O)[C@](C)(CCC(=O)O)[C@H]3CC[C@]12C
inactive: dose: 50.0 mg/kg/injection, schedule: Q04DX003 (ip), vehicle: alcohol 102 % of control | dose: 100.0 mg/kg/injection, schedule: Q04DX003 (ip), vehicle: alcohol 98 % of control | dose: 200.0 mg/kg/injection, schedule: Q04DX003 (ip), vehicle: alcohol 102 % of control

COC1OC2COc3ccccc3OC2C(N=C(N)N[N+](=O)[O-])C1O (stereo unspecified)
inactive: dose: 100.0 mg/kg/injection, schedule: Q01DX009 (ip), vehicle: gum acacia 97 % of control | dose: 200.0 mg/kg/injection, schedule: Q01DX009 (ip), vehicle: gum acacia 100 % of control | dose: 400.0 mg/kg/injection, schedule: Q01DX009 (ip), vehicle: gum acacia 95 % of control

O=C(OCC1OC(c2ccccc2)OC1C1OC(c2ccccc2)OC1COC(=O)c1ccccc1)c1ccccc1 (stereo unspecified)
inactive: [4] 103 % of control | [5] 110 % of control | [6] 110 % of control

O=C1COc2ccccc21
inactive: dose: 50.0 mg/kg/injection, schedule: Q01DX001 (ip), vehicle: saline 97 % of control | [4] 100 % of control | [5] 100 % of control | [6] 100 % of control
